Test results as given in patent US20140106387A1, “METHOD FOR CONTROLLING NAD(P)/NAD(P)H RATIO BY OXIDOREDUCTASE” (MD BIOALPHA CO., LTD., priority 2006, published 2014).

What was measured:
[1] = AMP/ATP, NAD+/NADH and NADP+/NADPH ratios in liver after intravenous administration; assay type: in vivo, mouse
Protocol: Acid extraction was used for analysis of an AOPN concentration in the cells and liver tissues. 400 μl of 6% HClO4 was added to the cells cultured in a 100 mm dish, whereas a two-fold volume of 6% HClO4 was added to the liver tissues which were then immediately homogenized. Each mixture was centrifuged at 14,000 g and 4° C. for 10 min, and the resulting supernatants were neutralized by addition of 1 M borate buffer (pH 11) containing 4 mM EDTA in an amount of 75%. Samples were aliquoted and stored at a temperature of −80° C.
Analysis of an RPN concentration in liver tissues was carried out using alkali extraction. An equal volume of ice-cold 0.5 M KOH was added to the liver tissues which were then immediately homogenized. Thereafter, a two-fold volume of ice-cold distilled water was added and mixed with the liver tissues for 2 min, and the mixture was centrifuged using an Amicon ultrafiltration membrane (MILLIPORE) at 14,000 g and 4° C. for 40 min. The thus-obtained filtrate was neutralized by addition of 1 M KH2PO4 (pH 6.5) in an amount of 10%. Samples were aliquoted and stored at a temperature of −70° C. Concentration determination was made within 72 hours.
A mobile phase was 100 mM ammonium acetate:MeOH (98:2, v/v), and preparations were filtered through a 0.22-μm Millipore filter. A flow rate was set to 0.8 mL/min and detection was made at 254 nm. Separation was carried out using a ZORBAX Bonus-RP C18 column (3.5 μm, 4.6×150 mm I.D., […]). The samples were maintained at 4° C. in a thermostatted autosampler until they were loaded onto the column.
In order to assay ATP, ADP, AMP, NAD and NADP levels, 450 μl of 5 mM ammonium acetate was added to 50 μl of a liver sample extracted with perchloric acid (HClO4) which was then diluted ten times. Diluted samples were vortexed and mixed for 1 min, and the mixture was filtered through a 0.2 μm nylon syringe filter (Whatman, Brentford, UK). Then, 5 μl of each aliquot was injected into a HPLC system. Each standard solution (50 μl) for these analytes was added to 50 μl of an extraction solution containing 2-chloroadenosine (internal standard) and 400 μl of 5 mM ammonium acetate, and mixed and filtered in the same manner as in the above samples. For analysis of NADH and NADPH, each 100 μl of liver samples extracted with a potassium hydroxide (KOH) solution was diluted twice with an equal amount of a 5 mM ammonium acetate (KOH solution for standards). HPLC system consists of an Agilent 1100 series vacuum degasser, a binary pump, an autosampler, a thermostatted column compartment, and a DAD detector (Agilent Technologies, Palo Alto, Calif.). Adenine and nucleotide analogues were separated by Waters XTena MS C18 2.1×150 mm, 3.5 μm column (Waters, Milford, Mass., USA) chromatography using a gradient method. A mobile phase for adenine and nucleotide analogues was 5 mM ammonium acetate (A) and methanol (B). NAD^+-related compounds were separated by linear gradient elution of initial 98% (A) to final 70% (B) at a time point of 8 min. The mobile phase was developed at 70% (B) for 7 min. Finally, the mobile phase was returned to 98% (A) at a point of 16 min, and reequilibrated to 98% (A) for 12 min. A flow rate was set to 0.2 mL/min throughout the entire period of time. An injection volume was 5 μl. Electrospray-ionization mass spectrometry (ESI-MS) was carried out in a positive ion mode using MDS Sciex API 4000 Triple Quadrupole Mass Spectrometer (Applied Biosystems, Ontario, Calif.).
5 mg/kg of pyrano-1,2-naphthoquinone was intravenously administered to a tail vein of DIO mice and changes in an NADH amount and an NAD^+/NADH ratio of liver tissues were examined for 6 hours.

[2] = blood metabolic parameters in C57BL/6 DIO mice; assay type: in vivo, mouse
Protocol: O2 consumption of animals was recorded by a known method. For indirect calorimetry, mice were individually housed in calorimetry chambers (Oxymax OPTO-M3 system; Columbus Instruments, Columbus, Ohio). Animals were allowed to acclimate to a new environment for 48 hours prior to the experiment, and amounts of O2 consumption and CO2 production were measured for […] every 30 minutes. Mice were given free access to food and drinking water during the first 24 h period, and animals were given access to drinking water only during the second 24 h period. Blood samples were taken from a heparinized tube, immediately placed on ice, centrifuged and stored at −20[…] for future use. Enzymatic colorimetry was employed for quantification of triglyceride (TG), total cholesterol, free fatty acids, and glucose (Beckman Instruments, CA). Plasma insulin (Linco Research, MO), TNFα (R&D System), adiponectin (Linco Research, MO), resistin (KOMED) and leptin (Linco Research, MO) were quantified by ELISA.

[3] = system: HEK293 cells; assay: calcium influx in NQO1-deficient HEK293 cells; assay type: cell-based, human
Protocol: Cells were grown on a coverslip in a culture medium for 24 hours, maintained in an RPMI 1640 serum-free medium for 1 hour, and pretreated with a calcium indicator Fluo-4 (5 μM) for 30 min. After pretreatment, the coverslip was mounted on a slide glass. […] Using an LSM Image Browser program (Carl Zeiss), 300 images taken for 10 min every 2 seconds were sorted and ordered in a time sequence and plotted on a graph.

[4] = 5 mg/kg intravenous, liver of DIO mice

CC1(C)CCC2=C(O1)c1ccccc1C(=O)C2=O [βL, 2,2-Dimethyl-3,4-dihydro-2H-benzo[h]chromene-5,6-dione]
numerical value of NADP+ ([1]; 5 mg/kg intravenous, liver): no significant change | time point of maximum NAD+/NADPH ratio ([1]; 5 mg/kg intravenous, liver): 120 min | time point of highest AMP/ATP ratio [1, 4]: 30 min | time point of maximum NAD+ amount and NAD+/NADH ratio [1, 4]: 120 min | time point of maximum increase of AMP concentration [1, 4]: 30 min | time point of recovery of AMP concentration to a normal level [1, 4]: 120 min | time point of recovery of AMP/ATP ratio to the initial state [1, 4]: 360 min | changes in the AMP/ATP and NAD+/NADP ratios ([1]; DIO mice): significant changes | AMP/ATP and NAD+/NADH ratios in the liver compared to control group ([1]; intravenous (IV) injection): higher | blood level of resistin ([2]; 50 mg/kg daily oral): significantly improved | insulin resistance and leptin resistance ([2]; 50 mg/kg daily oral): improved | blood fat and glucose levels ([2]; Days 3, 7, 14, 28 and 56, 50 mg/kg daily oral): significantly improved | calcium peak [3]: not appeared
